The values below come from patent US5945438A, “Triazole derivative and pharmaceutical comprising the same as an effective ingredient” (SS Pharmaceutical Co., Ltd., priority 1995, dated 1999).

Experiment [1] relates to C. albicans ATCC 44859. Nature of the experiment: In vitro antifungal activity against Candida albicans. The class given is cell-based. Conditions: C. albicans controlled to a yeast-type (no hyphal growth), Eagle's MEM medium with 10% serum, 2.0×10^4 cells/ml, 37° C.; for MIC: Candida albicans, read-out: Minimum inhibitory concentration. On the procedure:
In vitro antifungal activity against Candida albicans
Incubation was then conducted at 37° C. for 20 hours using a CO2 gas incubator.

Experiment [2] has as its system A. fumigatus IFM 40808. Nature of the experiment: In vitro antifungal activity against Aspergillus fumigatus. It is filed as cell-based. Conditions: RPMI MEDIUM 1640, pH 7, 3.0×10^4 cells/ml, 35° C.; for MIC: Aspergillus fumigatus, read-out: Minimum inhibitory concentration. As for the experimental part:
In vitro antifungal activity against Aspergillus fumigatus
Incubation was then conducted at 35° C. for 24 hours.

The mark [3] stands for this setting: IFM40808, 24 h, pH 7, growth of about 75% of hyphae inhibited.
Where [4] appears, read: growth of about 75% of hyphae inhibited, 24 hours.

≈ marks a conversion by molar mass, not a printed value. Like-named read-outs stand apart in the source and are kept apart here.

Take `CS(=O)(=O)C(F)(F)C(O)(Cn1cncn1)c1ccc(F)cc1F` (stereo not drawn) [Compound (1c-1), 3,3-difluoro-2-(2',4'-difluorophenyl)-3-methylsulfonyl-1-(1H-1,2,4-triazol-1-yl)propan-2-ol]: the MIC in experiment [1] (ATCC44859, 20 h) was found to be 0.0625 µg/mL (≈ 0.177 µM); in experiment [2] (setting [3]), 32 µg/mL (≈ 90.6 µM).

As for `CS(=O)(=O)C(F)(F)C(O)(Cn1cncn1)c1ccc(Cl)cc1Cl` (stereo not drawn) [Compound(1c-3), 2-(2',4'-dichlorophenyl)-3,3-difluoro-3-methylsulfonyl-1-(1H-1,2,4-triazol-1-yl)propan-2-ol], the MIC stood at 0.0313 µg/mL (≈ 0.081 µM) in experiment [1] (ATCC44859, 20 h) and 32 µg/mL (≈ 82.9 µM) in experiment [2] (setting [3]).

In the case of `CS(=O)(=O)C(F)(F)C(O)(Cn1cncn1)c1ccc(F)cc1F` (single isomer, unassigned; (-)) [(-)-Compound(1c-1), (-)-3,3-difluoro-2-(2',4'-difluorophenyl)-3-methylsulfonyl-1-(1H-1,2,4-triazol-1-yl)propan-2-ol], the Minimum inhibitory concentration in experiment [1] (20 hours) is 0.0313 µg/mL (≈ 0.0886 µM); in experiment [2] (setting [4]), 16 µg/mL (≈ 45.3 µM).

In turn, `CS(=O)(=O)C(F)(F)C(O)(Cn1cncn1)c1ccc(Cl)cc1Cl` (single isomer, unassigned; (-)) [(-)-Compound(1c-3), (-)-2-(2',4'-dichlorophenyl)-3,3-difluoro-3-methylsulfonyl-1-(1H-1,2,4-triazol-1-yl)propan-2-ol] had a Minimum inhibitory concentration in experiment [1] (20 hours) of 0.0078 µg/mL (≈ 0.0202 µM). Moreover, the MIC in experiment [2] (setting [3]) was found to be 32 µg/mL (≈ 82.9 µM).

`CSC(F)(F)C(O)(Cn1cncn1)c1ccc(F)cc1F` (racemic) [Compound(1a-1), 3,3-difluoro-2-(2',4'-difluorophenyl)-3-methylthio-1-(1H-1,2,4-triazol-1-yl)propan-2-ol]: the MIC in experiment [1] (ATCC44859, 20 h) turned out to be 0.0078 µg/mL (≈ 0.0243 µM); in experiment [2] (setting [3]), 4 µg/mL (≈ 12.4 µM).

On to `C[S+]([O-])C(F)(F)C(O)(Cn1cncn1)c1ccc(F)cc1F` (single isomer, unassigned) [Compound(1b-1A), 3,3-difluoro-2-(2',4'-difluorophenyl)-3-methylsulfinyl-1-(1H-1,2,4-triazol-1-yl)propan-2-ol], for which the Minimum inhibitory concentration in experiment [1] (20 hours) stood at 0.0625 µg/mL (≈ 0.185 µM). Further, in experiment [2] (setting [3]), the MIC was found to be 64 µg/mL (≈ 190 µM).

As for `CS(=O)(=O)C(F)(F)C(O)(Cn1cncn1)c1ccc(C(F)(F)F)cc1` (single isomer, unassigned; (+)) [(+)-Compound(1c-4), (+)-3,3-difluoro-3-methylsulfonyl-1-(1H-1,2,4-triazol-1-yl)-2-[4'-(trifluoromethyl)phenyl]propan-2-ol], the Minimum inhibitory concentration in experiment [1] (20 hours) was above 1 µg/mL. In experiment [2] (setting [3]), the MIC is above 64 µg/mL.

For the compound `CSC(F)(F)C(O)(Cn1cncn1)c1ccc(C(F)(F)F)cc1` (stereo not drawn) [Compound(1a-4), 3,3-difluoro-3-methylthio-1-(1H-1,2,4-triazol-1-yl)-2-[4'-(trifluoromethyl)phenyl]propan-2-ol], the MIC in experiment [1] (ATCC44859, 20 h) worked out at 0.0156 µg/mL (≈ 0.0442 µM); in experiment [2] (setting [3]) it was 16 µg/mL (≈ 45.3 µM).

In the case of `CS(=O)(=O)C(F)(F)C(O)(Cn1cncn1)c1ccc(F)cc1F` (single isomer, unassigned; (+)) [(+)-Compound(1c-1), (+)-3,3-difluoro-2-(2',4'-difluorophenyl)-3-methylsulfonyl-1-(1H-1,2,4-triazol-1-yl)propan-2-ol], the values for the Minimum inhibitory concentration in experiment [1] (20 hours) and in experiment [2] (setting [4]) were above 1 µg/mL and above 64 µg/mL, respectively.

As to `C[S+]([O-])C(F)(F)C(O)(Cn1cncn1)c1ccc(F)cc1F` (single isomer, unassigned) [Compound(1b-1B), 3,3-difluoro-2-(2',4'-difluorophenyl)-3-methylsulfinyl-1-(1H-1,2,4-triazol-1-yl)propan-2-ol], the results for the Minimum inhibitory concentration in experiment [1] (20 hours) and in experiment [2] (setting [4]) were 0.5 µg/mL (≈ 1.48 µM) and above 64 µg/mL, respectively.

In the case of `CS(=O)(=O)C(F)(F)C(O)(Cn1cncn1)c1ccc(C(F)(F)F)cc1` (racemic) [Compound(1c-4), 3,3-difluoro-3-methylsulfonyl-1-(1H-1,2,4-triazol-1-yl)-2-[4'-(trifluoromethyl)phenyl]propan-2-ol], the MIC in experiment [1] (ATCC44859, 20 h) was 0.125 µg/mL (≈ 0.324 µM); in experiment [2] (setting [3]) it was above 64 µg/mL.

As to `CS(=O)(=O)C(F)(F)C(O)(Cn1cncn1)c1ccc(F)cc1` (single isomer, unassigned; (-)) [(-)-Compound(1c-2), (-)-3,3-difluoro-2-(4'-fluorophenyl)-3-methylsulfonyl-1-(1H-1,2,4-triazol-1-yl)propan-2-ol], the Minimum inhibitory concentration worked out at 0.0625 µg/mL (≈ 0.186 µM) in experiment [1] (20 hours) and 64 µg/mL (≈ 191 µM) in experiment [2] (setting [4]).

Consider `CS(=O)(=O)C(F)(F)C(O)(Cn1cncn1)c1ccc(F)cc1` (racemic) [Compound(1c-2), 3,3-difluoro-2-(4'-fluorophenyl)-3-methylsulfonyl-1-(1H-1,2,4-triazol-1-yl)propan-2-ol], for which the MIC in experiment [1] (ATCC44859, 20 h) is 0.25 µg/mL (≈ 0.746 µM); in experiment [2] (setting [3]), above 64 µg/mL.

For `CS(=O)(=O)C(F)(F)C(O)(Cn1cncn1)c1ccccc1` (stereo not drawn) [Compound(1c-5), 3,3-difluoro-3-methylsulfonyl-2-phenyl-1-(1H-1,2,4-triazol-1-yl)propan-2-ol], the MIC in experiment [1] (ATCC44859, 20 h) was 0.5 µg/mL (≈ 1.58 µM); in experiment [2] (setting [3]), above 64 µg/mL.

Take `CSC(F)(F)C(O)(Cn1cncn1)c1ccc(F)cc1` (stereo not drawn) [Compound(1a-2), 3,3-difluoro-2-(4'-fluorophenyl)-3-methylthio-1-(1H-1,2,4-triazol-1-yl)propan-2-ol]: the MIC in experiment [1] (ATCC44859, 20 h) came to 0.0625 µg/mL (≈ 0.206 µM); in experiment [2] (setting [3]), 16 µg/mL (≈ 52.8 µM).

Consider `OC(Cn1cncn1)(Cn1cncn1)c1ccc(F)cc1F` [Fluconazole, reference compound], for which the MIC in experiment [1] (ATCC44859, 20 hours) was 0.25 µg/mL (≈ 0.816 µM); in experiment [2] (IFM40808, growth of about 75% of hyphae inhibited, 24 hours), above 64 µg/mL.

Consider `CS(=O)(=O)C(F)(F)C(O)(Cn1cncn1)c1ccc(C(F)(F)F)cc1` (single isomer, unassigned; (-)) [(-)-Compound(1c-4), (-)-3,3-difluoro-3-methylsulfonyl-1-(1H-1,2,4-triazol-1-yl)-2-(4'-(trifluoromethyl)phenyl]propan-2-ol], for which the Minimum inhibitory concentration in experiment [1] (20 hours) was 0.0625 µg/mL (≈ 0.162 µM); in experiment [2] (setting [4]), above 64 µg/mL.

With `CS(=O)(=O)C(F)(F)C(O)(Cn1cncn1)c1ccc(Cl)cc1Cl` (single isomer, unassigned; (+)) [(+)-Compound(1c-3), (+)-2-(2',4'-dichlorophenyl)-3,3-difluoro-3-methylsulfonyl-1-(1H-1,2,4-triazol-1-yl)propan-2-ol], the figures for the Minimum inhibitory concentration in experiment [1] (20 hours) and in experiment [2] (setting [4]) were above 1 µg/mL and above 64 µg/mL, respectively.

`CSC(F)(F)C(O)(Cn1cncn1)c1ccc(Cl)cc1Cl` (racemic) [Compound(1a-3), 2-(2',4'-dichlorophenyl)-3,3-difluoro-3-methylthio-1-(1H-1,2,4-triazol-1-yl)propan-2-ol]: the MIC was 0.0039 µg/mL (≈ 0.011 µM) in experiment [1] (ATCC44859, 20 h) and 2 µg/mL (≈ 5.65 µM) in experiment [2] (setting [3]).

On to `CS(=O)(=O)C(F)(F)C(O)(Cn1cncn1)c1ccc(F)cc1` (single isomer, unassigned; (+)) [(+)-Compound(1c-2), (+)-3,3-difluoro-2-(4'-fluorophenyl)-3-methylsulfonyl-1-(1H-1,2,4-triazol-1-yl)propan-2-ol], for which, in experiment [1] (20 hours), the Minimum inhibitory concentration was above 1 µg/mL. Moreover, the MIC in experiment [2] (setting [3]) was above 64 µg/mL.

For the compound `CSC(F)(F)C(O)(Cn1cncn1)c1ccccc1` (stereo not drawn) [Compound(1a-5), 3,3-difluoro-3-methylthio-2-phenyl-1-(1H-1,2,4-triazol-1-yl)propan-2-ol], the MIC in experiment [1] (ATCC44859, 20 h) stood at 0.125 µg/mL (≈ 0.438 µM); in experiment [2] (setting [3]) it was 16 µg/mL (≈ 56.1 µM).
